From patent publication US20080241211A1, “DEVICE WHICH ENHANCES THE BIOLOGICAL ACTIVITY OF LOCALLY APPLIED GROWTH FACTORS WITH PARTICULAR EMPHASIS ON THOSE USED FOR BONE REPAIR” (University of Southern California, priority 2007, published 2008)
Entries after “also recorded” stand apart in the source; their conditions may differ.

Assays:
osteoblasts = details: cited from earlier work
estrogen receptor = assay: Naringin enhancement of BMP-2 effect with estrogen receptor antagonist ICI182,780 in C2C12; assay type: cell-based; details: FIG. 5
Description: Intracellular distribution of the estrogen receptor in skeletal myoblasts (C2C12) was determined by immuno-fluorescent staining (Milanesi, L., et al., J Cell Biochem, 2008). Naringin bind to estrogen receptor. Inhibition of estrogen receptor abrogate naringin effect. […] However, the mechanism by which naringin exerts its effects is still unclear. From our prelimianry study, there is evidence that naringin acts via estrogen-receptor (ER)-mediated signaling. Cells were cultured with naringin, in combination with 7α,17β-[9[(4,4,5,5,5-pentafluoropentyl)sulfinyl]nonyl] estra-1,3,5(10)-triene-3,17-diol (ICI182,780), a non-specific ERα and ERβ antagonist.

[1] = test system: Pre-myoblast cell line C2C12; assay: BMP-2 induced ALP activity in C2C12 cell culture; assay type: cell-based
Description: C2C12 was plated in 96-well culture plate with density of 12.5K/well in 10% FBS/DMEM for 5 hours attachment. […] Cells were incubated at 37° C. for another 48 hours. Cell membrane associated ALP activity was tested by standard ALP assay.
C2C12 was plated in 96-well culture plate with density of 12.5K/well in 10% FBS/DMEM for 5 hours attachment. Medium was changed into 1% testing medium. Forty nano-gram of rhBMP-2 in 10 μl was added in every well and 1-1600 nM of naringin was added 10 minutes later.

[2] = test system: Rat bone marrow derived stem cells; assay: MTT cell proliferation assay; assay type: cell-based; details: 48 h, FIG. 6
Description: MTT was used for cell proliferation assay. MTT [3-(4,5-dimethylthiazol-2-yl)-2,5-diphenyltetrazolium bromide] assay is based on the ability of a mitochondrial dehydrogenase enzyme from viable cells to cleave the tetrazolium rings of the pale yellow MTT and form a dark blue formazan crystals which is largely impermeable to cell membranes, thus resulting in its accumulation within healthy cells. Rat bone marrow derived stem cells were selected by pro-plating methods. Cells used in this study were from passages 3-4. 1×10^7 viable cells/mL in culture media containing 10% FCS were dispensed 100 μL per well in 96 well flat bottomed tissue culture plates. Cells were allow to grow with and without naringin and incubated plates in a humidified CO2 incubator at 37° C. for 48 h. 10 μL of MTT solution were added to all wells of 48 h cultured stem cells and incubate for 4 h at 37° C. After washing cells 3 times with PBS, dark blue dye in cells were dissolved with DMSO. After a few minutes at room temperature read plates using a plate reader in dual wavelength measuring system, at 540 nm and a reference wavelength of 630 nm.
Dose dependent of naringin on bone marrow stem cell proliferation was studied. Cell number was assayed by MTT method. […] (see FIG. 6).

[3] = Collagen sponge implants, subcutaneous or intramuscular bone induction in rats; assay type: in vivo, rat
Description: Collagen sponge was either blended with naringin solution or covalently crosslinked naringin to collagen sponges. Different doses of BMP-2 were added to the matrices before implantation. Samples were placed intramuscular in thigh muscle. Ten Fisher 344 rats with 180 g in weight were used in this study. Implants were be retrieved 28 days postoperatively. Explants were dissected free of muscle flaps and cut into halves. One half of each explant was used for alkaline phosphatase assay.
Based on these surprising discoveries, the inventors concluded that specific growth factors are needed in addition to naringin for bone to form (FIG. 3).
It will be recognized by one skilled in the art that osteoinductive enhancers are particularly useful in situations where fracture healing is compromised, such as in older people where biosynthetic abilities may be declining, or in situations where not sufficient bone is available for repair. It will also be understood by one of ordinary skill in the art that the addition of growth factors (natural or synthetic) to the naringin containing preparation is essential for osteoinduction.

[4] = DBM with naringin in abdominal muscle pouches of nude rats, ectopic bone formation; assay type: in vivo; details: optimized dose of naringin
Description: Osteoinductive (OI) activity of human DBM obtained from Tissue Bank with particle size of 210-750 micrometers was tested in vitro with cell culture methods (Han, 2003). DBM were grouped according their OI score.
Two doses of naringin were used to treat DBM particles before implantation. In 50 mg of DBM, 50 micro liter of 100 micromolar or […] of naringin/PBS solution was added into DBM before implantation.
Muscle pouches were created in abdominal muscles bilaterally in nude rats (weighing 120-150 g each) at 6 sites by sharp and blunt dissection. Subsequently, fifty milligrams of three groups of DBM, two doses of naringin/PBS and with PBS alone, were packed into pouches and closed with a single absorbable suture. Implants were retrieved 28 days postoperatively. The recti abdomini muscles were excised as single muscle flaps and placed in cold PBS moisturized paper towels for radiography. Explants were dissected free of muscle flaps and cut into halves. One half of each explant were used for alkaline phosphatase assay and the other half were fixed in 10% neutral buffered formalin solution for 24 hours and decalcified with a decalcifying solution (Stephens Scientific, Riverdale, N.J.) for 48 hours. The decalcified explants were paraffin-embedded and sectioned with a […] microtome. […]

MG-63 human osteoblasts = details: via activation of the estrogen receptor; cited from earlier work

## O=c1c(-c2ccc(O)cc2)coc2cc(O)ccc12 [daidzein]
osteoblasts; daidzein 2-50 microM, P<0.05
  increase of viability of osteoblasts: about 1.4 fold
osteoblasts; daidzein 2-100 microM, P<0.05
  increase of alkaline phosphatase activity of osteoblasts: about 1.4 fold
  increase of osteocalcin synthesis of osteoblasts: ~2.0 fold
osteoblasts; osteoblasts
  BMP2 mRNA increase: 5.0 fold
  BMP2 protein increase: 7.0 fold

## C[C@]12CC[C@@H]3c4ccc(O)cc4C[C@@H](CCCCCCCCC[S+]([O-])CCCC(F)(F)C(F)(F)F)[C@H]3[C@@H]1CC[C@@H]2O (stereo partly drawn) [ICI, 7α,17β-[9[(4,4,5,5,5-pentafluoropentyl)sulfinyl]nonyl] estra-1,3,5(10)-triene-3,17-diol]
Estrogen receptor
  effect of estrogen receptor antagonist on naringin enhancing BMP-2 effect: partially block naringin enhancing BMP-2 effect

## C[C@@H]1O[C@@H](O[C@H]2[C@H](Oc3cc(O)c4c(c3)O[C@H](c3ccc(O)cc3)CC4=O)O[C@H](CO)[C@@H](O)[C@@H]2O)[C@H](O)[C@H](O)[C@H]1O [naringin]
[1]; 40 ng rhBMP-2 per well, 1-1600 nM naringin added 10 minutes later, FIG. 4
  naringin concentration with maximal enhancing ALP effect: 800 nM
[1]; BMP-2 plus naringin versus BMP-2 alone, FIG. 3
  increase of BMP-2 activity by naringin: four-fold
[1]; BMP-2 plus naringin, FIG. 3
  BMP-2 activity in the ALP assay when naringin is added: 0.4
[1]; C2C12, preliminary results
  induction of differentiation in osteoprogenitor cells by alkaline phosphatase activity: significant induction of differentiation
[1]; naringin added to BMP-2, C2C12, FIG. 3
  effect of naringin on BMP-2 induced ALP activity: increases the upregulation of alkaline phosphatase activity by BMP-2; also recorded: dose dependently increase BMP-2 induced ALP activity
[1]; naringin alone, no BMP-2, C2C12, 48 hours
  effect of naringin by itself on ALP activity / osteoinductivity: not enough for osteogenic induction; also recorded: no effect on ALP activity; also recorded: no osteoinductivity at all
[2]
  bone marrow stem cell proliferation (MTT): inhibits rat bone marrow cell proliferation
[3]; collagen sponges with naringin plus growth factors (BMP2 and/or BMP7), subcutaneous or intramuscular model
  new bone induction: did induce bone
[3]; naringin alone with collagen carrier, no growth factors, rats
  new bone induction: do not induce new bone; also recorded: not sufficient to induce bone; also recorded: no bone was formed; also recorded: no effect
[4]
  DBM activity in regard of ectopic bone formation potential: significantly increased

## O=c1c(O)c(-c2ccc(O)c(O)c2)oc2cc(O)cc(O)c12 [quercetin]
MG-63 human osteoblasts
  alkaline phosphatase activity in MG-63 human osteoblasts: induced an increase in alkaline phosphatase activity

## O=c1c(O)c(-c2ccc(O)cc2)oc2cc(O)cc(O)c12 [kaempferol]
MG-63 human osteoblasts
  alkaline phosphatase activity in MG-63 human osteoblasts: induced an increase in alkaline phosphatase activity
